Experimental data reported in ChEMBL document CHEMBL1129323, “Comparative molecular moment analysis (CoMMA): 3D-QSAR without molecular superposition” (J Med Chem, 1996).

Key:
[1] = Hammett constant was evaluated; format: ADME
[2] = molecular target: T1, Corticosteroid-binding globulin (Homo sapiens) (UniProt P08185)
T1 sequence (whole entry): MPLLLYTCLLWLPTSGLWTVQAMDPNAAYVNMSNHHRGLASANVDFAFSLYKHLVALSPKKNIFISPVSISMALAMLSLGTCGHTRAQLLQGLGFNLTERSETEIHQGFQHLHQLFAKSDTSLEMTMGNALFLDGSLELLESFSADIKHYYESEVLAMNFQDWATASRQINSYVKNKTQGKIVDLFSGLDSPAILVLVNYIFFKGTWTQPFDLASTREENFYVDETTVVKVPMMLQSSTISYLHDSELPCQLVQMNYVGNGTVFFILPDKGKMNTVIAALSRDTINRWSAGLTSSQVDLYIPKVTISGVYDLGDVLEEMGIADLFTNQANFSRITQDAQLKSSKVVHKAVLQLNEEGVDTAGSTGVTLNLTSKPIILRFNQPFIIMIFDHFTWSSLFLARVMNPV
Description: Binding affinity for corticosteroid binding globulin is expressed as log(1/k)

[3] = molecular target: T2, Sex hormone-binding globulin (Homo sapiens) (UniProt P04278)
T2 sequence (whole entry): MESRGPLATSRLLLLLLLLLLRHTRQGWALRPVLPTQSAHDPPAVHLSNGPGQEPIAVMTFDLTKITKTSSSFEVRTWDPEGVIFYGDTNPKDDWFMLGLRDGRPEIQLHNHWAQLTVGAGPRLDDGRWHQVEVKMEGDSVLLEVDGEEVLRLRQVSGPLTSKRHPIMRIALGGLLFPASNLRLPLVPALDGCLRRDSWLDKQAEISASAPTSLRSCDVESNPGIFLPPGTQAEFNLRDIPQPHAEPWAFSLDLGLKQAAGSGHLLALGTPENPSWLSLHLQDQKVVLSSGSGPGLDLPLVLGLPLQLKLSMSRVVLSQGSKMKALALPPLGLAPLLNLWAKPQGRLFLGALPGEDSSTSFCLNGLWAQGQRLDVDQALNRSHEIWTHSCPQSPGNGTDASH
Description: Binding affinity towards testosterone binding globulin is expressed as log(1/k).

Structure (SMILES)	Hammett constant [1]	Log 1/K [2]	Log 1/K [3]
O=C(O)c1cccc(SC(F)(F)F)c1	0.4		
C[C@]12CC[C@H]3[C@@H](CCC4=CC(=O)CC[C@@]43C)[C@@H]1CC[C@@H]2C(=O)CO		7.65	7.38
COc1ccc(C(=O)O)cc1 [p-ANISIC ACID]	-0.27		
O=C(O)c1cccc(I)c1	0.35		
O=C(O)c1ccc(CCl)cc1	0.12		
O=C(O)c1cccc(C(F)(F)F)c1	0.43		
CC(=O)[C@@]1(O)[C@H](O)C[C@H]2[C@@H]3CCC4=CC(=O)CC[C@]4(C)[C@H]3CC[C@@]21C		6.25	
O=C(O)c1ccc(C(F)(F)C(F)(F)F)cc1	0.52		
CC(=O)[C@H]1CC[C@H]2[C@@H]3CCC4=CC(=O)CC[C@@H]4[C@H]3CC[C@]12C		6.82	
O=C(O)c1ccc(I)cc1	0.18		
COc1cccc(C(=O)O)c1	0.12		
Nc1cccc(C(=O)O)c1 [3-AMINOBENZOIC ACID]	-0.16		
C[C@]12CC[C@@H]3c4ccc(O)cc4CC[C@H]3[C@@H]1C[C@@H](O)[C@@H]2O		5	6.63
O=C(O)c1cccc(S(=O)(=O)C(F)(F)F)c1	0.79		
C[C@]12CC[C@H](O)CC1=CC[C@@H]1[C@@H]2CC[C@]2(C)C(=O)CC[C@@H]12		5	7.82
CSc1ccc(C(=O)O)cc1	0		
O=C(O)c1cccc(CCl)c1	0.11		
O=C(O)c1cccc(CI)c1	0.1		
O=C(O)c1cccc(S(=O)(=O)F)c1	0.8		
C[C@]12CC[C@H]3[C@@H](CCC4=CC(=O)CC[C@@H]43)[C@@H]1CC[C@@H]2O		6.14	
CC(=O)[C@@]1(O)CC[C@H]2[C@@H]3CC=C4C[C@@H](O)CC[C@]4(C)[C@H]3CC[C@@]21C		5	6.36
Cc1cccc(C(=O)O)c1	-0.07		
C[C@@H]1C[C@@]2(C)C(=CC1=O)CC[C@H]1[C@@H]3CC[C@](O)(C(=O)CO)[C@@]3(C)C[C@H](O)[C@@]12F		5.8	
O=C(O)c1cccc(CBr)c1	0.12		

Structure (SMILES)	Hammett constant [1]	Log 1/K [2]	Log 1/K [3]
O=C(O)c1ccc(F)cc1	0.06		
C[C@]12CCC(=O)C=C1CC[C@@H]1[C@@H]2CC[C@]2(C)C(=O)CC[C@@H]12		5.76	7.46
C[C@]12CCC(=O)C=C1CC[C@@H]1[C@@H]2[C@@H](O)C[C@]2(C=O)[C@@H](C(=O)CO)CC[C@@H]12		6.28	5.32
O=C(O)c1ccc(CBr)cc1	0.14		
O=C(O)c1cccc([N+](=O)[O-])c1	0.71		
C[C@]12CCC(=O)C=C1CC[C@@H]1[C@@H]2[C@@H](O)C[C@@]2(C)[C@H]1CC[C@]2(O)C(=O)CO		7.88	6.2
O=C(O)c1ccc(SC(F)(F)F)cc1	0.5		
O=C(O)c1ccccc1 [BENZOIC ACID]	0		
C[C@]12C=CC(=O)C=C1CC[C@@H]1[C@@H]2[C@@H](O)C[C@@]2(C)[C@H]1CC[C@]2(O)C(=O)CO		7.51	
O=C(O)c1cccc(Cl)c1	0.37		
CC(C)(C)c1cccc(C(=O)O)c1	-0.1		
C[C@]12CC[C@H](O)C[C@@H]1CC[C@@H]1[C@@H]2CC[C@]2(C)[C@@H](O)CC[C@@H]12		5	9.11
O=C(O)c1cccc(OC(F)(F)F)c1	0.38		
CSc1cccc(C(=O)O)c1	0.15		
O=C(O)c1cccc(F)c1	0.34		
O=C(O)c1ccc(OC(F)(F)F)cc1	0.35		
O=C(O)c1ccc(C(F)(F)F)cc1	0.54		
N#Cc1ccc(C(=O)O)cc1	0.66		
C[C@]12CCC(=O)C=C1CC[C@@H]1[C@@H]2CC[C@@]2(C)[C@H]1CC[C@]2(O)C(=O)CO		7.88	7.2
CS(=O)(=O)c1ccc(C(=O)O)cc1	0.72		
Cc1ccc(C(=O)O)cc1 [4-METHYLBENZOIC ACID]	-0.17		
O=C(O)c1cccc(Br)c1	0.39		
C[C@]12CC[C@H]3[C@@H](CCC4=CC(=O)CC[C@@]43C)[C@@H]1CC[C@@H]2O		6.72	9.2
CC(=O)[C@H]1CC[C@H]2[C@@H]3CCC4=CC(=O)CC[C@]4(C)[C@H]3CC[C@]12C		7.38	6.94

Structure (SMILES)	Hammett constant [1]	Log 1/K [2]	Log 1/K [3]
CC(=O)OCC(=O)[C@@]1(O)CCC2C3CCC4=CC(=O)CC[C@]4(C)C3C(O)C[C@@]21C (some centres not stated)		7.55	
N#Cc1cccc(C(=O)O)c1	0.56		
O=C(O)c1ccc(Br)cc1	0.23		
C[C@]12C[C@@H](O)[C@H]3[C@@H](CCC4=CC(=O)CC[C@@]43C)[C@@H]1CC[C@@H]2C(=O)CO		7.2	
O=C(O)c1ccc(CI)cc1	0.11		
Nc1ccc(C(=O)O)cc1 [AMINOBENZOIC ACID]	-0.66		
CC(=O)[C@@]1(O)CC[C@H]2[C@@H]3CCC4=CC(=O)CC[C@]4(C)[C@H]3CC[C@@]21C		7.74	7
CS(=O)(=O)c1cccc(C(=O)O)c1	0.6		
C[C@]12C[C@H](O)[C@H]3[C@@H](CCC4=CC(=O)CC[C@@]43C)[C@@H]1CC[C@@H]2C(=O)CO		7.88	6.34
O=C(O)c1cccc(C(F)(F)C(F)(F)F)c1	0.47		
O=C(O)c1ccc([N+](=O)[O-])cc1 [4-NITROBENZOIC ACID]	0.78		
C[C@]12CCC(=O)C=C1CC[C@@H]1[C@@H]2C(=O)C[C@@]2(C)[C@H]1CC[C@]2(O)C(=O)CO		6.89	6.43
CCc1cccc(C(=O)O)c1	-0.07		
CC(=O)[C@H]1CC[C@H]2[C@@H]3CC=C4C[C@@H](O)CC[C@]4(C)[C@H]3CC[C@]12C		5.25	7.15
O=C(O)c1ccc(S)cc1	0.15		
O=C(O)c1cccc(S)c1	0.25		
CC(=O)[C@@]1(C)CCC2C3CCC4=CC(=O)CC[C@]4(C)C3CC[C@@]21C (some centres not stated)		7.12	
CC(C)(C)c1ccc(C(=O)O)cc1	-0.2		
O=C(O)c1ccc(S(=O)(=O)F)cc1	0.91		
O=C(O)c1ccc(O)cc1 [PARABEN]	-0.37		
O=C(O)c1cccc(O)c1 [3-HYDROXYBENZOIC ACID]	0.12		
CC(=O)[C@H]1CC[C@H]2[C@@H]3CCC4=CC(=O)CC[C@]4(C)[C@H]3C(=O)C[C@]12C		6.78	
O=C(O)c1ccc(S(=O)(=O)C(F)(F)F)cc1	0.93		
CCc1ccc(C(=O)O)cc1	-0.15		
